Test system: patients with a single variant in the ChAT gene (340L>F or 510R>Q)
Assay: Clinical response to medications prior to sequencing in patients carrying a ChAT gene variant
Details: 2/2 patients, dampens opposing sympathetic activity

In the case of CC(C)NCC(O)COc1cccc2ccccc12 (stereo not shown) [propranolol], the clinical response is reported as “clinical improvement”.

Reference: patent publication US20160051527A1, “METHODS AND KITS FOR TREATING AND CLASSIFYING INDIVIDUALS AT RISK OF OR SUFFERING FROM A NEUROLOGICAL DYSFUNCTION OR DISORDER” (priority 2013, published 2016)
